Measurements as given in ChEMBL document CHEMBL1201862, “PubChem BioAssay data set” (2004).
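Cultured in 96-well plates, cells were exposed to test compound for 48 hours across five concentrations. The concentration for 50% growth inhibition is given as GI50.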 Calls of active or inactive are those of the source. No stated cut-off is given here; in the data, active = GI50 up to about 1.1 µM and inactive = higher.

What was measured:
Test in all cases: NCI anticancer screen, dose series, 48 h
[1] = tested on: NCI-H226
[2] = tested on: LOX IMVI
[3] = tested on: MOLT-4
[4] = tested on: NCI/ADR-RES
[5] = tested on: A549
[6] = tested on: SNB-19
[7] = tested on: A498
[8] = tested on: SK-OV-3
[9] = tested on: SF-268
[10] = tested on: EKVX
[11] = tested on: NCI-H522
[12] = tested on: SW-620
[13] = tested on: U-251
[14] = tested on: T47D
[15] = tested on: Malme-3M
[16] = tested on: RPMI-8226
[17] = tested on: HT-29
[18] = tested on: DU-145
[19] = tested on: SR
[20] = tested on: OVCAR-4

Structure (SMILES) | GI50 [1] | GI50 [2] | GI50 [3] | GI50 [4] | GI50 [5] | GI50 [6] | GI50 [7] | GI50 [8] | GI50 [9] | GI50 [10] | GI50 [11] | GI50 [12] | GI50 [13] | GI50 [14] | GI50 [15] | GI50 [16] | GI50 [17] | GI50 [18] | GI50 [19] | GI50 [20]
CC1=NN(C(=O)c2ccccc2O)C(=O)/C1=C/c1ccc(O)cc1 | 0.475 µM (active) | 0.468 µM (active) | 0.711 µM (active) | 0.519 µM (active) | 0.291 µM (active) | 0.363 µM (active) | 0.134 µM (active) | 0.26 µM (active) | 0.265 µM (active) | 1.81 µM (inactive) | 0.807 µM (active) | 2.73 µM (inactive) | 0.205 µM (active) | 4.03 µM (inactive) | 0.431 µM (active) | 0.312 µM (active) | 26.9 µM (inactive) | 0.492 µM (active) | 0.485 µM (active) | 1.48 µM (inactive)
C/C(=N\NC(=O)c1ccncc1)c1sc(-n2nc(-c3ccccc3)cc2-c2ccccc2)nc1C | > 64.1 µM (inactive) | > 80.9 µM (inactive) | 17.1 µM (inactive) | > 100 µM (inactive) | > 31.6 µM (inactive) | > 31.6 µM (inactive) | > 100 µM (inactive) | > 31.6 µM (inactive) | > 100 µM (inactive) | 47.8 µM (inactive) | > 35.7 µM (inactive) | > 31.6 µM (inactive) | > 31.6 µM (inactive) | 18.5 µM (inactive) | > 56.2 µM (inactive) | 20.7 µM (inactive) | > 100 µM (inactive) | > 31.6 µM (inactive) | 25.5 µM (inactive) | > 31.6 µM (inactive)
Nc1nc(Cl)cc(NCC2(CO)CC(c3ccccc3)C2)n1 (stereo not given) | 37.7 µM (inactive) | 7.16 µM (inactive) | 19.8 µM (inactive) | 13.8 µM (inactive) | 26.2 µM (inactive) | 88.7 µM (inactive) | 22.8 µM (inactive) | 54.2 µM (inactive) | 94.4 µM (inactive) | 5.41 µM (inactive) | 37.9 µM (inactive) | > 100 µM (inactive) | 50.7 µM (inactive) | 11.4 µM (inactive) | 46.5 µM (inactive) | 17.2 µM (inactive) | 30 µM (inactive) | > 100 µM (inactive) | 7.59 µM (inactive) | 24.4 µM (inactive)
S=c1c2nc[nH]c2ncn1CCSC1=NC=NC2=NC=NC21 (stereo not given) | > 100 µM (inactive) | 44.7 µM (inactive) | 70.5 µM (inactive) | > 100 µM (inactive) | > 100 µM (inactive) | > 100 µM (inactive) | > 100 µM (inactive) | 52.2 µM (inactive) | > 100 µM (inactive) | > 100 µM (inactive) | > 73.6 µM (inactive) | > 100 µM (inactive) | > 100 µM (inactive) | > 94.2 µM (inactive) | > 100 µM (inactive) | > 85.5 µM (inactive) | > 100 µM (inactive) | 78.3 µM (inactive) | 50.1 µM (inactive) | > 87.3 µM (inactive)
CC(C)C1(O)C(=O)N(c2c(F)c(F)c(F)c(F)c2F)C(=S)N1CCSc1ccccc1 (stereo not given) | 20.7 µM (inactive) | 16.5 µM (inactive) | 15.1 µM (inactive) | 16.3 µM (inactive) | 15.3 µM (inactive) | 17.8 µM (inactive) | 16.3 µM (inactive) | 17.3 µM (inactive) | 18.4 µM (inactive) | 18.8 µM (inactive) | 16.6 µM (inactive) | 16.6 µM (inactive) | 18.2 µM (inactive) | 16.2 µM (inactive) | 17.3 µM (inactive) | 10.9 µM (inactive) | 18.4 µM (inactive) | 17.1 µM (inactive) | 16.2 µM (inactive) | 15.2 µM (inactive)
Fc1cccc(C2ON=C(c3ccccc3)N2C23CC4CC(CC(C4)C2)C3)c1 (stereo not given) | > 10 µM (inactive) | > 10 µM (inactive) | > 10 µM (inactive) | > 10 µM (inactive) | > 10 µM (inactive) | > 10 µM (inactive) | > 10 µM (inactive) | > 10 µM (inactive) | > 10 µM (inactive) | > 10 µM (inactive) | > 10 µM (inactive) | > 10 µM (inactive) | > 10 µM (inactive) | > 10 µM (inactive) | > 10 µM (inactive) | 8.77 µM (inactive) | > 10 µM (inactive) | > 10 µM (inactive) | 8.97 µM (inactive) | > 10 µM (inactive)
COc1cc(OC)nc(-n2c(N)c(C(=O)O)c3ccc([N+](=O)[O-])cc3c2=O)n1 | > 100 µM (inactive) | > 100 µM (inactive) | > 100 µM (inactive) | > 100 µM (inactive) | > 100 µM (inactive) | > 100 µM (inactive) | > 100 µM (inactive) | > 100 µM (inactive) | > 100 µM (inactive) | > 100 µM (inactive) | > 100 µM (inactive) | 88.1 µM (inactive) | > 100 µM (inactive) | > 100 µM (inactive) | > 100 µM (inactive) | > 100 µM (inactive) | > 100 µM (inactive) | > 100 µM (inactive) | > 100 µM (inactive) | > 100 µM (inactive)
CCOC(=O)/C=C(\C(=O)OCC)n1ccc(=O)n(Cc2cnnn2CCCCOC(C)=O)c1=O | 17.6 µM (inactive) | 4.09 µM (inactive) | 2.49 µM (inactive) | 17.6 µM (inactive) | 19.9 µM (inactive) | 1.57 µM (inactive) | 21.1 µM (inactive) | 34 µM (inactive) | 15.6 µM (inactive) | 11 µM (inactive) | 1.53 µM (inactive) | 2.05 µM (inactive) | 27.3 µM (inactive) | 4.07 µM (inactive) | 2.06 µM (inactive) | 6.68 µM (inactive) | 9.08 µM (inactive) | 18.6 µM (inactive) | 2.19 µM (inactive) | 12.3 µM (inactive)
O=c1ccn(C2OC(COC3CCCCO3)C(OC3CCCCO3)C2OC2CCCCO2)c(=O)n1-c1ccccc1 (stereo not given) | > 100 µM (inactive) | > 100 µM (inactive) | > 100 µM (inactive) | > 100 µM (inactive) | > 100 µM (inactive) | > 100 µM (inactive) | > 100 µM (inactive) | > 100 µM (inactive) | > 100 µM (inactive) | > 100 µM (inactive) | > 100 µM (inactive) | > 100 µM (inactive) | > 100 µM (inactive) | > 100 µM (inactive) | > 100 µM (inactive) | > 100 µM (inactive) | > 100 µM (inactive) | > 100 µM (inactive) | 51.5 µM (inactive) | > 100 µM (inactive)
C/C(=N\NC(=O)N/N=C(\C)c1ccccn1)c1ccccn1 | 31 µM (inactive) | 0.466 µM (active) | 0.555 µM (active) | 8.83 µM (inactive) | 4.88 µM (inactive) | 2.19 µM (inactive) | > 71.4 µM (inactive) | > 100 µM (inactive) | 4.18 µM (inactive) | 19.3 µM (inactive) | 67.1 µM (inactive) | 0.726 µM (active) | 20.3 µM (inactive) | 35.2 µM (inactive) | > 100 µM (inactive) | 0.0792 µM (active) | < 0.01 µM (active) | 43.5 µM (inactive) | 0.394 µM (active) | 42 µM (inactive)
CCCCNC(=O)OCCN=C1c2ccccc2C(Br)C(Br)c2ccccc21 (stereo not given) | 76.9 µM (inactive) | 20 µM (inactive) | 24.9 µM (inactive) | 19.9 µM (inactive) | 83.9 µM (inactive) | 24.9 µM (inactive) | 41.5 µM (inactive) | 32.1 µM (inactive) | 32.3 µM (inactive) | 20.3 µM (inactive) | 22.2 µM (inactive) | 40.2 µM (inactive) | 23.2 µM (inactive) | 33.8 µM (inactive) | 23.3 µM (inactive) | 22.5 µM (inactive) | 12.5 µM (inactive) | 41.3 µM (inactive) | 21.3 µM (inactive) | 23.8 µM (inactive)
COC(=O)C1(OC(=O)Sc2ccccc2)CCN(C)CC1 | 13.6 µM (inactive) | 8.07 µM (inactive) | 6.68 µM (inactive) | 13.1 µM (inactive) | 11.4 µM (inactive) | 28.3 µM (inactive) | 21.8 µM (inactive) | 33.3 µM (inactive) | 18.4 µM (inactive) | 9.1 µM (inactive) | 16.2 µM (inactive) | 21.7 µM (inactive) | 12.1 µM (inactive) | 31.3 µM (inactive) | 63.7 µM (inactive) | 6.38 µM (inactive) | 21.4 µM (inactive) | 23.8 µM (inactive) | 10.8 µM (inactive) | 23.2 µM (inactive)
CCCCCCCCCCCCCCCCP(=O)([O-])OCC[N+](C)(C)C | 23 µM (inactive) | 14.9 µM (inactive) | 17.2 µM (inactive) | 18.7 µM (inactive) | 18.1 µM (inactive) | 30 µM (inactive) | 14.5 µM (inactive) | 7.4 µM (inactive) | 17.6 µM (inactive) | 20.1 µM (inactive) | 22.6 µM (inactive) | 14.5 µM (inactive) | 16.7 µM (inactive) | 17.6 µM (inactive) | 21.3 µM (inactive) | 15.3 µM (inactive) | 12.7 µM (inactive) | 14.7 µM (inactive) | 10.4 µM (inactive) | 19.1 µM (inactive)
O=C(NNC(=O)c1ccccc1O)c1ccc(O)cc1 | 14.8 µM (inactive) | 31.6 µM (inactive) | 36.4 µM (inactive) | 22.1 µM (inactive) | 38.8 µM (inactive) | > 100 µM (inactive) | > 100 µM (inactive) | 33.4 µM (inactive) | 9.95 µM (inactive) | 38.3 µM (inactive) | 13.1 µM (inactive) | 81.3 µM (inactive) | > 100 µM (inactive) | > 100 µM (inactive) | 14.5 µM (inactive) | 81.5 µM (inactive) | 37.4 µM (inactive) | 76.7 µM (inactive) | 49.1 µM (inactive) | 91.6 µM (inactive)
